# In US4677100A, “Cephalosporin derivatives” (Banyu Pharmaceutical Co., Ltd., priority 1984, dated 1987):
# Assays:
# [1] = system: A. calcoaceticus No. 14; assay: MIC, agar plate dilution method; type: cell-based; details: Acinetobacter calcoaceticus; for MIC: A. calcoaceticus No. 14, 10^6 CFU/ml, Sensitivity Disk Agar, read-out: Minimum Inhibitory Concentration
# Procedure: (§1) The minimum inhibitory concentrations (MIC: μg/ml) of the compounds of the present invention against various microorganisms were measured by an agar plate dilution method (inoculum size: 10^6 CFU/ml) by using Sensitivity Disk Agar (Nissui) in comparison with Cefotaxime and Ceftazidime as comparative compounds.
# [2] = system: C. freundii No. 7; assay: MIC, agar plate dilution method; type: cell-based; details: Citrobacter freundii; C. freundii No. 7; 10^6 CFU/ml; Sensitivity Disk Agar; read-out: Minimum Inhibitory Concentration
# Procedure: as §1
# [3] = system: E. cloaceae Nek 39; assay: MIC, agar plate dilution method; type: cell-based; details: E. cloaceae Nek 39; 10^6 CFU/ml; Sensitivity Disk Agar; read-out: Minimum Inhibitory Concentration
# Procedure: as §1
# [4] = system: E. coli C/Rms149; assay: MIC, agar plate dilution method; type: cell-based; details: Escherichia coli, read-out: Minimum Inhibitory Concentration
# Procedure: as §1
# [5] = system: E. coli CSH2; assay: MIC, agar plate dilution method; type: cell-based; details: Escherichia coli, 10^6 CFU/ml, Sensitivity Disk Agar, read-out: Minimum Inhibitory Concentration
# Procedure: as §1
# [6] = system: E. coli CSH; assay: MIC, agar plate dilution method; type: cell-based; details: Escherichia coli, read-out: Minimum Inhibitory Concentration
# Procedure: as §1
# [7] = system: E. coli ML1410/Rte16; assay: MIC, agar plate dilution method; type: cell-based; details: Escherichia coli, ML1410/RTE16, read-out: Minimum Inhibitory Concentration
# Procedure: as §1
# [8] = system: E. coli NIHJJC-2; assay: MIC, agar plate dilution method; type: cell-based; details: Escherichia coli, NIHJJC2; E. coli NIHJJC-2; 10^6 CFU/ml; Sensitivity Disk Agar; read-out: Minimum Inhibitory Concentration
# Procedure: as §1
# [9] = system: E. coli W3630/Rms212; assay: MIC, agar plate dilution method; type: cell-based; details: Escherichia coli, W3630/RMS212, read-out: Minimum Inhibitory Concentration
# Procedure: as §1
# [10] = system: E. coli W3630/Rms213; assay: MIC, agar plate dilution method; type: cell-based; details: Escherichia coli, W3630/RMS213, read-out: Minimum Inhibitory Concentration
# Procedure: as §1
# [11] = system: K. pneumoniae No. 42; assay: MIC, agar plate dilution method; type: cell-based; details: Klebsiella pneumoniae; K. pneumoniae No. 42; 10^6 CFU/ml; Sensitivity Disk Agar; read-out: Minimum Inhibitory Concentration
# Procedure: as §1
# [12] = system: P. mirabilis JY10; assay: MIC, agar plate dilution method; type: cell-based; details: Proteus mirabilis; P. mirabilis JY10; 10^6 CFU/ml; Sensitivity Disk Agar; read-out: Minimum Inhibitory Concentration
# Procedure: as §1
# [13] = system: P. vulgaris No. 33; assay: MIC, agar plate dilution method; type: cell-based; details: Proteus vulgaris; P. vulgaris No. 33; 10^6 CFU/ml; Sensitivity Disk Agar; read-out: Minimum Inhibitory Concentration
# Procedure: as §1
# [14] = system: P. vulgaris OB1043; assay: MIC, agar plate dilution method; type: cell-based; details: Proteus vulgaris; P. vulgaris OB1043; 10^6 CFU/ml; Sensitivity Disk Agar; read-out: Minimum Inhibitory Concentration
# Procedure: as §1
# [15] = system: S. aureus JS-1; assay: MIC, agar plate dilution method; type: cell-based; details: Staphylococcus aureus, JS1; S. aureus JS-1; 10^6 CFU/ml; Sensitivity Disk Agar; read-out: Minimum Inhibitory Concentration
# Procedure: as §1
# [16] = system: S. aureus NIHJJC-1; assay: MIC, agar plate dilution method; type: cell-based; details: Staphylococcus aureus, NIHJJC1; S. aureus NIHJJC-1; 10^6 CFU/ml; Sensitivity Disk Agar; read-out: Minimum Inhibitory Concentration
# Procedure: as §1
# [17] = system: S. marcescens No. 16-2; assay: MIC, agar plate dilution method; type: cell-based; details: Serratia marcescens, NO.162; S. marcescens No. 16-2; 10^6 CFU/ml; Sensitivity Disk Agar; read-out: Minimum Inhibitory Concentration
# Procedure: as §1
# [18] = system: P. aeruginosa AK109; assay: MIC, agar plate dilution method; type: cell-based, Pseudomonas aeruginosa; details: for antibacterial activity relative to the compound of Reference Example: Pseudomonas aeruginosa AK109; for MIC: Pseudomonas aeruginosa, P. aeruginosa AK109, 10^6 CFU/ml, Sensitivity Disk Agar, read-out: Minimum Inhibitory Concentration
# Procedure: as §1
# [19] = system: P. aeruginosa AKR17; assay: MIC, agar plate dilution method; type: cell-based, Pseudomonas aeruginosa; details: for antibacterial activity relative to the compound of Reference Example: Pseudomonas aeruginosa AKR-17, resistant to all cephalosporins including Ceftazidime; for MIC: Pseudomonas aeruginosa, P. aeruginosa AKR17, 10^6 CFU/ml, Sensitivity Disk Agar, read-out: Minimum Inhibitory Concentration
# Procedure: as §1
# [20] = system: P. cepacia 23; assay: MIC, agar plate dilution method; type: cell-based, Pseudomonas cepacia; details: for MIC: Burkholderia cepacia, P. cepacia 23, 10^6 CFU/ml, Sensitivity Disk Agar, read-out: Minimum Inhibitory Concentration; for antibacterial activity relative to the compound of Reference Example: Pseudomonas cepacia 23
# Procedure: as §1
# [21] = system: P. maltophilia IID 1275; assay: MIC, agar plate dilution method; type: cell-based, Pseudomonas maltophilia; details: for MIC: Stenotrophomonas maltophilia, IID1275, P. maltophilia IID 1275, 10^6 CFU/ml, Sensitivity Disk Agar, read-out: Minimum Inhibitory Concentration
# Procedure: as §1
# [22] = system: S. aureus Smith; assay: treatment of experimental infection of mice; type: in vivo
# [23] = system: E. coli Juhl; assay: treatment of experimental infection of mice; type: in vivo
# [24] = system: P. aeruginosa D15; assay: treatment of experimental infection of mice; type: in vivo
# [25] = system: Gram-positive bacteria and Gram-negative bacteria; assay: antibacterial activity, general statement; type: cell-based; details: sensitive and resistant bacteria
# Procedure: as §1
SMILES,antibacterial activity relative to the compound of Reference Example [1],MIC [1] [µg/mL],MIC [2] [µg/mL],MIC [3] [µg/mL],MIC [4] [µg/mL],MIC [5] [µg/mL],MIC [6] [µg/mL],MIC [7] [µg/mL],MIC [8] [µg/mL],MIC [9] [µg/mL],MIC [10] [µg/mL],MIC [11] [µg/mL],MIC [12] [µg/mL],MIC [13] [µg/mL],MIC [14] [µg/mL],MIC [15] [µg/mL],MIC [16] [µg/mL],MIC [17] [µg/mL],antibacterial activity relative to the compound of Reference Example [18],MIC [18] [µg/mL],further results
"CON=C(C(=O)NC1C(=O)N2C(C(=O)[O-])=C(C[N+]3(C)Cc4cc(O)c(O)cc4C3)CSC12)c1csc(N)n1 (centres unmarked) [Ex. 4-D, 7-[(Z)-2-(2-aminothiazol-4-yl)-2-methoxyiminoacetamido]-3-(5,6-dihydroxy-2-methyl-2-isoindolinium)methyl-3-cephem-4-carboxylate]",at least 32 times,0.2,6.25,≤ 0.05,0.1,0.2,1.56,0.1,≤ 0.05,≤ 0.05,0.78,0.2,0.39,0.78,3.12,25,6.25,6.25,at least 16 times,0.1,"antibacterial activity relative to the compound of Reference Example [19]: at least 32 times; MIC [19]: 0.78 µg/mL; MIC [20]: 0.2 µg/mL; antibacterial activity relative to the compound of Reference Example [20]: at least 32 times; MIC [21]: 25 µg/mL; ED50 ([22]; Staphylococcus aureus, mice infected with S. aureus Smith, read-out: ED50): 6.2 mg/kg; efficacy relative to Ceftazidime ([22]; experimental infections of mice caused by S. aureus Smith): about twice as high; ED50 ([23]; Escherichia coli, mice infected with E. coli Juhl, read-out: ED50): 0.12 mg/kg; efficacy relative to Ceftazidime ([23]; experimental infections of mice caused by E. coli Juhl): about twice as high; ED50 ([24]; Pseudomonas aeruginosa, mice infected with P. aeruginosa D15, read-out: ED50): 14 mg/kg; efficacy relative to Ceftazidime ([24]; experimental infections of mice caused by P. aeruginosa D15): about twice as high; antibacterial activity (in words) [25]: particularly strong antibacterial activities"
"C[N+]1(CC2=C(C(=O)[O-])N3C(=O)C(NC(=O)C(=NOCC(=O)O)c4csc(N)n4)C3SC2)Cc2cc(O)c(O)cc2C1 (centres unmarked) [Ex. 8-E, 7-[(Z)-2-(2-aminothiazol-4-yl)-2-carboxymethoxyimino)acetamido]-3-(5,6-dihydroxy-2-methyl-2-isoindolinium)methyl-3-cephem-4-carboxylate]",at least 32 times,≤ 0.05,0.78,≤ 0.05,≤ 0.05,≤ 0.05,0.1,≤ 0.05,≤ 0.05,≤ 0.05,≤ 0.05,≤ 0.05,0.2,0.1,0.2,> 25,12.5,0.78,at least 16 times,≤ 0.05,antibacterial activity relative to the compound of Reference Example [19]: at least 32 times; MIC [19]: 0.2 µg/mL; MIC [20]: ≤ 0.05 µg/mL; antibacterial activity relative to the compound of Reference Example [20]: at least 32 times; antibacterial activity relative to the compound of Reference Example ([21]; Pseudomonas maltophilia resistant to all cephalosporins): at least twice as strong; MIC [21]: 6.25 µg/mL; antibacterial activity (in words) [25]: particularly strong antibacterial activities
